# Patent publication US8530493B2, “Indolopyridines as Eg5 kinesin modulators” (4SC AG, priority 2006, dated 2013)
# Key:
# [1] = system: RKO p27 or p21 uninduced (proliferating) colon adenocarcinoma cells; experiment: Alamar Blue cell viability assay, RKO p27 or p21 uninduced (proliferating); type: cell-based; conditions: Homo sapiens, RKOp27, 72 h, Table B2, anti-proliferative/cytotoxic activity, read-out: −log EC50 RKO p27 or p21 uninduced (proliferating) (converted)
# Method in brief: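 RKO p21 or p27 subclones grown without Ponasterone A, i.e. proliferating, exposed 24 h after seeding to semi-log compound dilutions in DMEM/10% FCS (1% DMSO controls) for 72 h at 37° C. Alamar Blue fluorescence (544/590 nm) read relative to untreated cells; EC50 from dose-response curves, given as −log EC50 (mol/l).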
# [2] = system: RKO p27 or p21 induced (arrested) colon adenocarcinoma cells; experiment: Alamar Blue cell viability assay, RKO p27 or p21 induced (arrested); type: cell-based; conditions: Homo sapiens, RKOp27, Table B2, cells arrested by Ponasterone A, 72 hours, read-out: −log EC50 RKO p27 or p21 induced (arrested) (converted)
# Method in brief: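 RKOp21 or RKOp27 subclones in DMEM/10% FCS with 10 μM Ponasterone A to induce p21/p27 arrest, seeded 24 h before compound; triplicate 72 h exposure at 37 °C. Alamar Blue fluorescence (544/590 nm) as % of untreated (1% DMSO) cells; EC50 from dose-response curves, reported as −log EC50 (mol/l).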
EC50 [2],Compound,EC50 [1]
≥ 316 nM,"COc1ccc2[nH]c3c(c2c1)C[C@@]1(C)C(=O)N(CCN(C)CCO)C(=O)N1[C@@H]3c1cccc(O)c1 (racemic) [Example 118, (3aSR,10RS)-2-{2-[(2-Hydroxy-ethyl)-methyl-amino]-ethyl}-10-(3-hydroxy-phenyl)-6-methoxy-3a-methyl-3a,4,9,10-tetrahydro-2,9,10a-triaza-cyclopenta[b]fluorene-1,3-dione]",≤ 39.8 nM
≥ 316 nM,"CCNCCCN1C(=O)N2[C@H](c3cccc(O)c3)c3[nH]c4ccc(Cl)cc4c3C[C@@]2(C)C1=O (racemic) [Example 131, (3aSR,10RS)-6-Chloro-2-(3-ethylamino-propyl)-10-(3-hydroxy-phenyl)-3a-methyl-3a,4,9,10-tetrahydro-2,9,10a-triaza-cyclopenta[b]fluorene-1,3-dione]",≤ 39.8 nM
≥ 3160 nM,"COc1ccc2[nH]c3c(c2c1)C[C@@]1(C)C(=O)N(CCNC(C)(C)C)C(=O)N1[C@@H]3c1cccc(O)c1 (racemic) [Example 72, (3aSR,10RS)-2-(2-tert-Butylamino-ethyl)-10-(3-hydroxy-phenyl)-6-methoxy-3a-methyl-3a,4,9,10-tetrahydro-2,9,10a-triaza-cyclopenta[b]fluorene-1,3-dione]",≤ 39.8 nM
≥ 316 nM,"COc1ccc2[nH]c3c(c2c1)C[C@@]1(C)C(=O)N(CCCCl)C(=O)N1[C@@H]3c1cccc(O)c1 (racemic) [Example 55, (3aSR,10RS)-2-(3-Chloro-propyl)-10-(3-hydroxy-phenyl)-6-methoxy-3a-methyl-3a,4,9,10-tetrahydro-2,9,10a-triaza-cyclopenta[b]fluorene-1,3-dione]",39.8 to 251 nM
≥ 3160 nM,"COc1ccc2[nH]c3c(c2c1)C[C@@]1(C)C(=O)N(CCCNCC2CC2)C(=O)N1[C@@H]3c1cccc(O)c1 (racemic) [Example 95, (3aSR,10RS)-2-[3-(Cyclopropylmethyl-amino)-propyl]-10-(3-hydroxy-phenyl)-6-methoxy-3a-methyl-3a,4,9,10-tetrahydro-2,9,10a-triaza-cyclopenta[b]fluorene-1,3-dione]",≤ 39.8 nM
≥ 3160 nM,"CCN(CC)CCN1C(=O)N2[C@H](c3cccc(O)c3)c3[nH]c4ccc(OC)cc4c3C[C@@]2(C)C1=O (racemic) [Example 69, (3aSR,10RS)-2-(2-Diethylamino-ethyl)-10-(3-hydroxy-phenyl)-6-methoxy-3a-methyl-3a,4,9,10-tetrahydro-2,9,10a-triaza-cyclopenta[b]fluorene-1,3-dione]",≤ 39.8 nM
≥ 3160 nM,"COc1ccc2[nH]c3c(c2c1)C[C@@]1(C)C(=O)N(CCCNCC(C)C)C(=O)N1[C@@H]3c1cccc(O)c1 (racemic) [Example 92, (3aSR,10RS)-10-(3-Hydroxy-phenyl)-2-(3-isobutylamino-propyl)-6-methoxy-3a-methyl-3a,4,9,10-tetrahydro-2,9,10a-triaza-cyclopenta[b]fluorene-1,3-dione]",≤ 39.8 nM
≥ 3160 nM,"COc1ccc2[nH]c3c(c2c1)C[C@@]1(C)C(=O)N(CCN2CC=CCC2)C(=O)N1[C@@H]3c1cccc(O)c1 (racemic) [Example 68, (3aSR,10RS)-2-[2-(3,6-Dihydro-2H-pyridin-1-yl)-ethyl]-10-(3-hydroxy-phenyl)-6-methoxy-3a-methyl-3a,4,9,10-tetrahydro-2,9,10a-triaza-cyclopenta[b]fluorene-1,3-dione]",≤ 39.8 nM
≥ 3160 nM,"CCN(C)CCCN1C(=O)N2[C@H](c3cccc(O)c3)c3[nH]c4ccc(OC)cc4c3C[C@@]2(C)C1=O (racemic) [Example 77, (3aSR,10RS)-2-[3-(Ethyl-methyl-amino)-propyl]-10-(3-hydroxy-phenyl)-6-methoxy-3a-methyl-3a,4,9,10-tetrahydro-2,9,10a-triaza-cyclopenta[b]fluorene-1,3-dione]",≤ 39.8 nM

# Continued, molecule first:
Compound,EC50 [2],EC50 [1]
"CC(C)N(C)CCCN1C(=O)N2[C@H](c3cccc(O)c3)c3[nH]c4ccc(Cl)cc4c3C[C@@]2(C)C1=O (racemic) [Example 133, (3aSR,10RS)-6-Chloro-10-(3-hydroxy-phenyl)-2-[3-(isopropyl-methyl-amino)-propyl]-3a-methyl-3a,4,9,10-tetrahydro-2,9,10a-triaza-cyclopenta[b]fluorene-1,3-dione]",≥ 316 nM,≤ 39.8 nM
"COc1ccc2[nH]c3c(c2c1)C[C@@]1(C)C(=O)N(CCCN2CCCCC2)C(=O)N1[C@@H]3c1cccc(O)c1 (racemic) [Example 105, (3aSR,10RS)-10-(3-Hydroxy-phenyl)-6-methoxy-3a-methyl-2-(3-piperidin-1-yl-propyl)-3a,4,9,10-tetrahydro-2,9,10a-triaza-cyclopenta[b]fluorene-1,3-dione]",≥ 316 nM,≤ 39.8 nM
"CCN(C)CCCN1C(=O)N2[C@H](c3cccc(O)c3)c3[nH]c4ccc(Cl)cc4c3C[C@@]2(C)C1=O (racemic) [Example 140, (3aSR,10RS)-6-Chloro-2-[3-(ethyl-methyl-amino)-propyl]-10-(3-hydroxy-phenyl)-3a-methyl-3a,4,9,10-tetrahydro-2,9,10a-triaza-cyclopenta[b]fluorene-1,3-dione]",≥ 3160 nM,≤ 39.8 nM
"C[C@@]12Cc3c([nH]c4ccc(Cl)cc34)[C@@H](c3cccc(O)c3)N1C(=O)N(CCNCC1CC1)C2=O (racemic) [Example 108, (3aSR,10RS)-6-Chloro-2-[2-(cyclopropylmethyl-amino)-ethyl]-10-(3-hydroxy-phenyl)-3a-methyl-3a,4,9,10-tetrahydro-2,9,10a-triaza-cyclopenta[b]fluorene-1,3-dione]",≥ 316 nM,≤ 39.8 nM
"C=CCNCCCN1C(=O)N2[C@H](c3cccc(O)c3)c3[nH]c4ccc(Cl)cc4c3C[C@@]2(C)C1=O (racemic) [Example 139, (3aSR,10RS)-2-(3-Allylamino-propyl)-6-chloro-10-(3-hydroxy-phenyl)-3a-methyl-3a,4,9,10-tetrahydro-2,9,10a-triaza-cyclopenta[b]fluorene-1,3-dione]",≥ 3160 nM,≤ 39.8 nM
"C[C@@]12Cc3c([nH]c4ccc(Cl)cc34)[C@@H](c3cccc(O)c3)N1C(=O)N(CCNC1CCC1)C2=O (racemic) [Example 103, (3aSR,10RS)-6-Chloro-2-(2-cyclobutylamino-ethyl)-10-(3-hydroxy-phenyl)-3a-methyl-3a,4,9,10-tetrahydro-2,9,10a-triaza-cyclopenta[b]fluorene-1,3-dione]",≥ 3160 nM,≤ 39.8 nM
"C[C@@]12Cc3c([nH]c4ccc(Cl)cc34)[C@@H](c3cccc(O)c3)N1C(=O)N(CCN1CCCCC1)C2=O (racemic) [Example 101, (3aSR,10RS)-6-Chloro-10-(3-hydroxy-phenyl)-3a-methyl-2-(2-piperidin-1-yl-ethyl)-3a,4,9,10-tetrahydro-2,9,10a-triaza-cyclopenta[b]fluorene-1,3-dione]",≥ 3160 nM,≤ 39.8 nM
"COc1ccc2[nH]c3c(c2c1)C[C@@]1(C)C(=O)N(CCCN2CCOCC2)C(=O)N1[C@@H]3c1cccc(O)c1 (racemic) [Example 148, (3aSR,10RS)-10-(3-Hydroxy-phenyl)-6-methoxy-3a-methyl-2-(3-morpholin-4-yl-propyl)-3a,4,9,10-tetrahydro-2,9,10a-triaza-cyclopenta[b]fluorene-1,3-dione]",≥ 316 nM,≤ 39.8 nM
